This is an account of results in ChEMBL document CHEMBL1811762, “Gusanlungionosides A-D, potential tyrosinase inhibitors from Arcangelisia gusanlung” (J Nat Prod, 2011).

Data set [1] deals with B16-F10. The data set can be described thus: Antimelanogenic activity in alpha-MSH-stimulated mouse B16F10 cells pretreated for 30 mins before alpha-MSH challenge measured after 48 hrs by ELISA reader. It is filed as functional, cell-based.
The next data set concerns the target T1, Tyrosinase (Agaricus bisporus, UniProt O42713).
T1 sequence (O42713 whole entry): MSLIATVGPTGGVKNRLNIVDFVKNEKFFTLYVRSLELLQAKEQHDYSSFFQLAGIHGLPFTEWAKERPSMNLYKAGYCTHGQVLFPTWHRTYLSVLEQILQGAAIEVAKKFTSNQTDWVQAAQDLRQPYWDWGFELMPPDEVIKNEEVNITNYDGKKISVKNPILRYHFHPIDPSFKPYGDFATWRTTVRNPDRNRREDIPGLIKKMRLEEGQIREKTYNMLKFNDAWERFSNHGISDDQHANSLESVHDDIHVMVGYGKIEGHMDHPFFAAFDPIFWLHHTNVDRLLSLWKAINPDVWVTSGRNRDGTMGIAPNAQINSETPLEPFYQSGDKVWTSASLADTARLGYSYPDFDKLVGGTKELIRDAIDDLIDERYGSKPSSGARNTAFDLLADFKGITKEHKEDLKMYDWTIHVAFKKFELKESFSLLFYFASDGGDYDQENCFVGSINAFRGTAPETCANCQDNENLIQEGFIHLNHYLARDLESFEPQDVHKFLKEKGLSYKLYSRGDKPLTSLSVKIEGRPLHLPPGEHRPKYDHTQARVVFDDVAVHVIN

The subject of data set [2] is B16-F10. In words: Cytotoxicity against mouse B16F10 cells up to 200 ug/mL. It is filed as cell-based.
The subject of data set [3] is B16-F10. The data set can be described thus: Decrease in tyrosinase mRNA expression in alpha-MSH-stimulated mouse B16F10 cells after 48 hrs by RT-PCR analysis. It is filed as functional, cell-based.

Calls of active or inactive are those of the source. The calls are words filed in the database; no cut-off is given here.

Description for Tyrosinase: Inhibition of mushroom tyrosinase using L-DOPA after 10 mins by ELISA reader

With `COc1cc([C@H]2c3c(cc(OC)c(O)c3OC)C[C@@H](CO)[C@H]2CO[C@@H]2O[C@H](CO)[C@@H](O)[C@H](O)[C@H]2O)cc(OC)c1O`, the result in the data set on B16-F10 [1] was Active. The same molecule had an IC50 against Tyrosinase greater than 1000 µM. The Activity entry with B16-F10 [2] is given as “Non-toxic”.
The like results for `COc1cc([C@@H]2c3c(cc(OC)c(O)c3OC)C[C@H](CO)[C@@H]2CO[C@@H]2O[C@H](CO)[C@@H](O)[C@H](O)[C@H]2O)cc(OC)c1O` were, in that order, “Active”, greater than 1000 µM and “Non-toxic”.
The like results for `COc1cc([C@@H]2c3c(cc(OC)c(O)c3OC)C[C@@H](CO)[C@H]2CO[C@@H]2O[C@H](CO)[C@@H](O)[C@H](O)[C@H]2O)cc(OC)c1O` were, in that order, “Active”, greater than 1000 µM and “Non-toxic”.
The like results for `COc1cc([C@H]2c3c(cc(OC)c(O)c3OC)C[C@H](CO)[C@@H]2CO[C@@H]2O[C@H](CO)[C@@H](O)[C@H](O)[C@H]2O)cc(OC)c1O` were, in that order, “Active”, greater than 1000 µM and “Non-toxic”.
Consider `COc1cc(/C=C/C(=O)NCCc2ccc(O)c(OC)c2)ccc1O`, for which, in the data set with B16-F10 [1], the result was Active. The molecule further returned an IC50 against Tyrosinase greater than 1000 µM. For the same molecule, in the data set with B16-F10 [2], the Activity entry was “Non-toxic”.
The matching figures for `COc1cc2c(cc1OC)C(=O)N(C)CC2`: “Active”, greater than 1000 µM and “Non-toxic”.
Turning to `CC1=CC(=O)CC(C)(C)[C@@H]1/C=C/[C@@H](C)O[C@@H]1O[C@H](CO)[C@@H](O)[C@H](O)[C@H]1O[C@@H]1O[C@@H](C)[C@H](O)[C@@H](O)[C@H]1O` [GUSANLUNGIONOSIDE A], the outcome in the data set on B16-F10 [1] and with B16-F10 [3] was Active. The IC50 against Tyrosinase came out at 150 µM. The Activity result in the data set with B16-F10 [2] is recorded as “Non-toxic”.
Take `CC1=CC(=O)CC(C)(C)[C@H]1/C=C/[C@@H](C)O[C@@H]1O[C@H](CO)[C@@H](O)[C@H](O)[C@H]1O[C@@H]1O[C@@H](C)[C@H](O)[C@@H](O)[C@H]1O` [GUSANLUNGIONOSIDE B]: the result with B16-F10 [1] and in the data set on B16-F10 [3] was Active. At Tyrosinase, this molecule displayed an IC50 of 160 µM. For the same molecule, the Activity result in the data set with B16-F10 [2] is reported as “Non-toxic”.
On to `CC1=CC(=O)CC(C)(C)[C@@H]1CC[C@@H](C)O[C@@H]1O[C@H](CO)[C@@H](O)[C@H](O)[C@H]1O[C@@H]1O[C@@H](C)[C@H](O)[C@@H](O)[C@H]1O` [GUSANLUNGIONOSIDE C], for which the result with B16-F10 [1] and with B16-F10 [3] was Active. The molecule also gave an IC50 at Tyrosinase of 200 µM. For the same molecule, the Activity entry in the data set on B16-F10 [2] is recorded as “Non-toxic”.
Regarding `CC1=CC(=O)CC(C)(C)[C@H]1CC[C@@H](C)O[C@@H]1O[C@H](CO)[C@@H](O)[C@H](O)[C@H]1O[C@@H]1O[C@@H](C)[C@H](O)[C@@H](O)[C@H]1O` [GUSANLUNGIONOSIDE D], the result with B16-F10 [1] and in the data set with B16-F10 [3] was Active. This molecule also registered an IC50 against Tyrosinase of 190 µM. Also, in the data set with B16-F10 [2], the Activity entry was “Non-toxic”.
For the molecule `O=C(/C=C/c1ccc(O)cc1)NCCc1ccc(O)cc1` [N-P-COUMAROYL TYRAMINE], the result in the data set on B16-F10 [1] was Active. On Tyrosinase, this molecule returned an IC50 greater than 1000 µM. The Activity entry in the data set with B16-F10 [2] is given as “Non-toxic”.
The matching figures for `OCc1ccc(O)cc1` [PARAHYDROXYBENZYL ALCOHOL]: “Active”, greater than 1000 µM and “Non-toxic”.
The matching figures for `COc1cc([C@H]2OC[C@H]3[C@@H]2CO[C@@H]3c2cc(OC)c(O)c(OC)c2)cc(OC)c1O` [SYRINGARESINOL]: “Active”, greater than 1000 µM and “Non-toxic”.
As for `COc1cc2c(cc1O)C(=O)N(C)CC2` [THALIFOLINE], the result in the data set on B16-F10 [1] was Active. The same molecule gave an IC50 at Tyrosinase greater than 1000 µM. The Activity result with B16-F10 [2] is “Non-toxic”.
